Measurements taken from ChEMBL document CHEMBL1138260, “The first biologically active synthetic analogues of FK228, the depsipeptide histone deacetylase inhibitor” (J Med Chem, 2007).
The source made the active and inactive calls. No cut-off for these calls is given here.

Key:
Histone deacetylase 1 = Histone deacetylase 1 (Homo sapiens, UniProt Q13547)
Description: Inhibition of HDAC1 in presence of DTT

MCF7 [1] = experiment: Growth inhibition of MCF7 cells; format: functional, cell-based; conditions: Homo sapiens
[2] = biological target: T1, Protein deacetylase HDAC6 (Homo sapiens, UniProt Q9UBN7)
T1 sequence (Q9UBN7 whole entry): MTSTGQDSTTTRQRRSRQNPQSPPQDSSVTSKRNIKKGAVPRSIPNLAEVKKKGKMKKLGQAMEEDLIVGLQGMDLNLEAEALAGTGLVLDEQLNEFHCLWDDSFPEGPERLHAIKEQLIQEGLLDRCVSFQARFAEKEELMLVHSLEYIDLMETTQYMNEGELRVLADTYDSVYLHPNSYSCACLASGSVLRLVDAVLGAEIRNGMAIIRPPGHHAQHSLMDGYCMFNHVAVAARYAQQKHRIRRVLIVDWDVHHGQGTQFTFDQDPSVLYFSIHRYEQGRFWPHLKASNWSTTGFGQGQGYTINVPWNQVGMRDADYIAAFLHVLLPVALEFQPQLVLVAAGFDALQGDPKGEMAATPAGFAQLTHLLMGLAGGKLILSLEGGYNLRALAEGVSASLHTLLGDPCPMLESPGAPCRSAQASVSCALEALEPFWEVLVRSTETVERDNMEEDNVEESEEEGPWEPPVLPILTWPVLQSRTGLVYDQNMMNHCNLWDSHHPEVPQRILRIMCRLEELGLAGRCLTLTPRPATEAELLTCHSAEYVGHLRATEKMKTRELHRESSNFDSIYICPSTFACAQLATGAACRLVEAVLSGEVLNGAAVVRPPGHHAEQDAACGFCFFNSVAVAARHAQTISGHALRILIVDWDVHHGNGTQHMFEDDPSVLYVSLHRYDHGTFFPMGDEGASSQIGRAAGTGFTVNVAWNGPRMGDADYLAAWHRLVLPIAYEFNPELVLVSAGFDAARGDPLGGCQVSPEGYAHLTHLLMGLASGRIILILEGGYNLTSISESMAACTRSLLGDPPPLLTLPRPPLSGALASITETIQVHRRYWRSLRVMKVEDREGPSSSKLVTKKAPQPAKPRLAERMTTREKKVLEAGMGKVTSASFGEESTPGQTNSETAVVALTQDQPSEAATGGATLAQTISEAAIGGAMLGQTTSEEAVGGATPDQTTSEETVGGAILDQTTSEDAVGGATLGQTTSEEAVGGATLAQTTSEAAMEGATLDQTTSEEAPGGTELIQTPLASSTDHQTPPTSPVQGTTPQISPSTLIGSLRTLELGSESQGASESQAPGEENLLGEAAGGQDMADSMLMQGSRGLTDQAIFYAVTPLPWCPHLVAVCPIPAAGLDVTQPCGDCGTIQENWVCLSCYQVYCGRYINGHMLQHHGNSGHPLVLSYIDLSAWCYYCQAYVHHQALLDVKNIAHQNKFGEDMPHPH
Description: Inhibition of HDAC6 in presence of DTT

Histone deacetylase = experiment: Inhibition of HDAC in HeLa nuclear extract in presence of DTT; format: protein assay, Homo sapiens
MCF7 [3] = experiment: Induction of p21cip1/waf1 promoter activity in MCF7 cells after 24 hrs; format: functional, cell-based; conditions: Homo sapiens

Histone deacetylase 1, sequence (Q13547 whole entry): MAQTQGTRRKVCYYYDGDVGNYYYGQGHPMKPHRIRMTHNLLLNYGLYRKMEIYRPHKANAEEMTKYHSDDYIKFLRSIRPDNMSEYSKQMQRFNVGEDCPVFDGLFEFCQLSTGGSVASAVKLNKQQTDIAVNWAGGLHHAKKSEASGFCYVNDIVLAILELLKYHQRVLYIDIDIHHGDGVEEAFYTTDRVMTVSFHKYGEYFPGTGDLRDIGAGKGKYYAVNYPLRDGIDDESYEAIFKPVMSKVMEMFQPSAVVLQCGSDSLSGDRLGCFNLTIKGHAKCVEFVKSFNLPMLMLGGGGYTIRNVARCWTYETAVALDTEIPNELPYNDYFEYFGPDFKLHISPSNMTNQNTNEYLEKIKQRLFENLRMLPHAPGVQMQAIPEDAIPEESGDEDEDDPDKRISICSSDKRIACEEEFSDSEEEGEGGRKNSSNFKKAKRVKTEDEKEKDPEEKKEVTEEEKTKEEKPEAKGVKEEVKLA

IC50 (Histone deacetylase 1) [nM]	IC50 (MCF7 [1]) [nM]	IC50 [2] [nM]	IC50 (Histone deacetylase) [nM]	SMILES	Activity (MCF7 [3])
> 100	55	> 10000	242	CC(=O)SCC/C=C/[C@@H]1CC(=O)N[C@H](C)C(=O)N[C@H](C)C(=O)N[C@H](C(C)C)C(=O)NCC(=O)O1	–
17.5	> 1000	4920	7	CC(C)[C@H]1NC(=O)[C@@H](C)NC(=O)[C@@H](C)NC(=O)C[C@@H](/C=C/CCS)OC(=O)CNC1=O	–
1.6	37	881	15	CC(C)[C@H]1NC(=O)[C@H]2CSSCC/C=C/[C@H](CC(=O)N[C@H](C)C(=O)N2)OC(=O)CNC1=O	Active
1.6	5.1	897	7.2	CC(C)[C@H]1NC(=O)C[C@H]2/C=C/CCSSC[C@@H](NC1=O)C(=O)N[C@H](C(C)C)C(=O)NCC(=O)O2	–
–	> 1000	–	> 3200	COC(=O)CNC(=O)[C@H](NC(=O)[C@H]1CSSCC/C=C/[C@@H](O)CC(=O)N[C@H](C)C(=O)N1)C(C)C	–
